Test results taken from paper PMC12751012, “Nanoscale Direct-to-Biology Optimization and Structural Insights into Selective S. aureus TrmD Inhibitors” (Journal of Medicinal Chemistry, 2025).

What follows are compounds tested against T1, S. aureus TrmD (Staphylococcus aureus, UniProt Q2FZ43) (assay: nanoSAR direct-to-biology FP displacement screening of crude triazoles). Conditions: crude triazole at 1 μM, assuming full conversion; 500 nM TrmD, 10 nM tracer 4; read-out: % displaced tracer.
T1 construct: made in house; host or cells: E. coli BL21
T1 sequence (Q2FZ43 1-245): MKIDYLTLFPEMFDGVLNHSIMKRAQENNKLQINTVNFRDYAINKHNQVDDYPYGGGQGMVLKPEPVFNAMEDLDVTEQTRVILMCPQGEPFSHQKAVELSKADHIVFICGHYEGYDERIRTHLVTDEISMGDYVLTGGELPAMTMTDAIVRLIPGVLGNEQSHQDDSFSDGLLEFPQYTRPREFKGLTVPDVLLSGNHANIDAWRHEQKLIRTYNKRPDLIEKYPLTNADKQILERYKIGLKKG
Assay type: binding
Outline: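 S. aureus TrmD (500 nM) with tracer 4 (10 nM) in Tris/NaCl/MgCl2/glycerol buffer, pH 7.5, was challenged with unpurified triazoles from in situ CuAAC of alkyne 7 with a 320-member azide library.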

SMILES	inhibition at 1 µM [%]
O=c1[nH]cnc2[nH]cc(-c3cn(C[C@@H]4CC[C@@H]5C[C@@H]5C4)nn3)c12 [Compound 03A07, O=C1NC=NC=2NC=C(C=3N=NN(C3)C[C@H]4C[C@@H]5[C@@H](C5)CC4)C12]	84
O=c1[nH]cnc2[nH]cc(-c3cn(C[C@H]4C[C@@H]5C[C@@H]5C4)nn3)c12 [Compound 03A08, O=C1NC=NC=2NC=C(C=3N=NN(C3)C[C@@H]4C[C@@H]5[C@@H](C5)C4)C12]	76
O=c1[nH]cnc2[nH]cc(-c3cn(C[C@@H]4COCCO4)nn3)c12 [Compound 03A10, O=C1NC=NC=2NC=C(C=3N=NN(C3)C[C@H]4OCCOC4)C12]	57
O=c1[nH]cnc2[nH]cc(-c3cn(CC(F)(F)F)nn3)c12 [Compound 03A11, FC(F)(F)CN1N=NC(C=2C=3C(=O)NC=NC3NC2)=C1]	14
O=c1[nH]cnc2[nH]cc(-c3cn([C@H]4CCCNCC4)nn3)c12 [Compound 03A12, O=C1NC=NC=2NC=C(C=3N=NN(C3)[C@@H]4CC[NH2+]CCC4)C12]	18
O=c1[nH]cnc2[nH]cc(-c3cn(-c4cccc5ncccc45)nn3)c12 [Compound 03B01, O=C1NC=NC=2NC=C(C=3N=NN(c4c5c(nccc5)ccc4)C3)C12]	20
CC(CO)(CO)Cn1cc(-c2c[nH]c3nc[nH]c(=O)c23)nn1 [Compound 03B02, O=C1NC=NC=2NC=C(C=3N=NN(C3)CC(CO)(CO)C)C12]	67
O=c1[nH]cnc2[nH]cc(-c3cn(Cc4cc(-c5ccco5)on4)nn3)c12 [Compound 03B03, O=C1NC=NC=2NC=C(C=3N=NN(C3)CC4=NOC(C=5OC=CC5)=C4)C12]	49
O=c1[nH]cnc2[nH]cc(-c3cn(CCn4cnc5ccccc54)nn3)c12 [Compound 03B04, O=C1NC=NC=2NC=C(C=3N=NN(C3)CCN4c5c(N=C4)cccc5)C12]	71
Cc1cc(C)cc(-n2cc(-c3c[nH]c4nc[nH]c(=O)c34)nn2)c1 [Compound 03B05, O=C1NC=NC=2NC=C(C=3N=NN(c4cc(cc(c4)C)C)C3)C12]	24
O=c1[nH]cnc2[nH]cc(-c3cn([C@H]4CC5(CCC5)Oc5ccc(F)cc54)nn3)c12 [Compound 03B06, Fc1cc2c(OC3(C[C@@H]2N4N=NC(C=5C=6C(=O)NC=NC6NC5)=C4)CCC3)cc1]	70
NC(=O)[C@@H](c1ccc(F)cc1)n1cc(-c2c[nH]c3nc[nH]c(=O)c23)nn1 [Compound 03B07, Fc1ccc(cc1)[C@@H](N2N=NC(C=3C=4C(=O)NC=NC4NC3)=C2)C(=O)N]	16
Cc1nc(C)c(Cn2cc(-c3c[nH]c4nc[nH]c(=O)c34)nn2)o1 [Compound 03B08, O=C1NC=NC=2NC=C(C=3N=NN(C3)CC=4OC(=NC4C)C)C12]	50
O=c1[nH]cnc2[nH]cc(-c3cn(-c4ccc(C(F)(F)F)cc4)nn3)c12 [Compound 03B09, FC(F)(F)c1ccc(N2N=NC(C=3C=4C(=O)NC=NC4NC3)=C2)cc1]	15
COC(=O)CCCn1cc(-c2c[nH]c3nc[nH]c(=O)c23)nn1 [Compound 03B10, O=C(OC)CCCN1N=NC(C=2C=3C(=O)NC=NC3NC2)=C1]	58
O=c1[nH]cnc2[nH]cc(-c3cn(CCOCC4CCCC4)nn3)c12 [Compound 03B11, O=C1NC=NC=2NC=C(C=3N=NN(C3)CCOCC4CCCC4)C12]	44
C[C@@H]1CNC[C@H]1n1cc(-c2c[nH]c3nc[nH]c(=O)c23)nn1 [Compound 03B12, O=C1NC=NC=2NC=C(C=3N=NN(C3)[C@H]4[C@@H](C[NH2+]C4)C)C12]	19
O=c1[nH]cnc2[nH]cc(-c3cn(CCP(=O)(O)O)nn3)c12 [Compound 03C01, P([O-])([O-])(=O)CCN1N=NC(C=2C=3C(=O)NC=NC3NC2)=C1]	28

SMILES	inhibition at 1 µM [%]
C[C@@H](CN)n1cc(-c2c[nH]c3nc[nH]c(=O)c23)nn1 [Compound 03C02, O=C1NC=NC=2NC=C(C=3N=NN(C3)[C@H](C[NH3+])C)C12]	40
O=c1[nH]cnc2[nH]cc(-c3cn(Cc4ccc5c(c4)OCO5)nn3)c12 [Compound 03C03, O=C1NC=NC=2NC=C(C=3N=NN(C3)Cc4cc5OCOc5cc4)C12]	70
Cc1cc(F)cc(-n2cc(-c3c[nH]c4nc[nH]c(=O)c34)nn2)c1 [Compound 03C04, Fc1cc(N2N=NC(C=3C=4C(=O)NC=NC4NC3)=C2)cc(c1)C]	17
O=c1[nH]cnc2[nH]cc(-c3cn(-c4ccc5c(c4)OCO5)nn3)c12 [Compound 03C05, O=C1NC=NC=2NC=C(C=3N=NN(c4cc5OCOc5cc4)C3)C12]	59
O=c1[nH]cnc2[nH]cc(-c3cn(-c4ccc5c(c4)NCC5)nn3)c12 [Compound 03C06, O=C1NC=NC=2NC=C(C=3N=NN(c4cc5NCCc5cc4)C3)C12]	25
CC(C)(C)OCCCn1cc(-c2c[nH]c3nc[nH]c(=O)c23)nn1 [Compound 03C07, O=C1NC=NC=2NC=C(C=3N=NN(C3)CCCOC(C)(C)C)C12]	42
COC(=O)c1coc(Cn2cc(-c3c[nH]c4nc[nH]c(=O)c34)nn2)n1 [Compound 03C08, O=C(OC)C=1N=C(OC1)CN2N=NC(C=3C=4C(=O)NC=NC4NC3)=C2]	40
O=c1[nH]cnc2[nH]cc(-c3cn(C[C@@H]4CCCN4)nn3)c12 [Compound 03C09, O=C1NC=NC=2NC=C(C=3N=NN(C3)C[C@H]4[NH2+]CCC4)C12]	58
C[C@@H](Cn1cc(-c2c[nH]c3nc[nH]c(=O)c23)nn1)c1ccccn1 [Compound 03C10, O=C1NC=NC=2NC=C(C=3N=NN(C3)C[C@@H](c4ncccc4)C)C12]	63
COCCn1cc(-c2c[nH]c3nc[nH]c(=O)c23)nn1 [Compound 03C11, O=C1NC=NC=2NC=C(C=3N=NN(C3)CCOC)C12]	29
O=c1[nH]cnc2[nH]cc(-c3cn(C[C@H]4CCNC4)nn3)c12 [Compound 03C12, O=C1NC=NC=2NC=C(C=3N=NN(C3)C[C@@H]4C[NH2+]CC4)C12]	74
Cc1ccc([C@@H](O)Cn2cc(-c3c[nH]c4nc[nH]c(=O)c34)nn2)cc1 [Compound 03D01, O=C1NC=NC=2NC=C(C=3N=NN(C3)C[C@H](O)c4ccc(cc4)C)C12]	65
C[C@@H]1C[C@H](n2cc(-c3c[nH]c4nc[nH]c(=O)c34)nn2)c2ccsc2S1(=O)=O [Compound 03D02, S1(=O)(=O)C=2SC=CC2[C@@H](N3N=NC(C=4C=5C(=O)NC=NC5NC4)=C3)C[C@H]1C]	27
O=c1[nH]cnc2[nH]cc(-c3cn(C[C@H](O)Cc4ccccc4)nn3)c12 [Compound 03D03, O=C1NC=NC=2NC=C(C=3N=NN(C3)C[C@H](O)Cc4ccccc4)C12]	39
CCOC(=O)C12CC(Cn3cc(-c4c[nH]c5nc[nH]c(=O)c45)nn3)(C1)OC21CCOCC1 [Compound 03D04, O=C(OCC)C12C3(OC(CN4N=NC(C=5C=6C(=O)NC=NC6NC5)=C4)(C1)C2)CCOCC3]	51
Nc1ccc(-n2cc(-c3c[nH]c4nc[nH]c(=O)c34)nn2)cc1 [Compound 03D05, O=C1NC=NC=2NC=C(C=3N=NN(c4ccc(N)cc4)C3)C12]	2.34
COCC(COC)n1cc(-c2c[nH]c3nc[nH]c(=O)c23)nn1 [Compound 03D06, O=C1NC=NC=2NC=C(C=3N=NN(C3)C(COC)COC)C12]	24
O=c1[nH]cnc2[nH]cc(-c3cn([C@H]4CCNC4)nn3)c12 [Compound 03D07, O=C1NC=NC=2NC=C(C=3N=NN(C3)[C@@H]4C[NH2+]CC4)C12]	27
